This note sets out measurements from ChEMBL document CHEMBL5257072, “Synthesis of Lathyrol PROTACs and Evaluation of Their Anti-Inflammatory Activities” (J Nat Prod, 2023).

Assay [1] deals with RAW264.7. Briefly: Anti-inflammatory activity in mouse RAW264.7 cells assessed as inhibition of LPS-induced NO production incubated for 3 hrs followed by LPS addition and measured after 24 hrs. The format is functional, cell-based.
The subject of assay [2] is RAW264.7. Put plainly: Cytotoxicity against mouse RAW264.7 cells assessed as reduction in cell viability at 25 uM incubated for 24 hrs by CCK-8 method. Format: functional, cell-based.
Assay [3] relates to RAW264.7. Put plainly: Cytotoxicity against mouse RAW264.7 cells assessed as reduction in cell viability incubated for 24 hrs by CCK-8 method. The settings on record: RAW264.7, 24 h. The format is functional, cell-based.
Assay [4] addresses Transcription factor MafF (Mus musculus) (UniProt O54791). Put plainly: Induction of degradation of MAFF in mouse RAW264.7 cells at 20 uM measured after 24 hrs. The format is cell-based.
Assay [5] has the same target. Put plainly: Induction of degradation of MAFF in mouse RAW264.7 cells at 2.5 to 20 uM measured after 24 hrs. The note with it: dose 2.5-20 µM. The format is cell-based.
For assay [6] the target is unchanged. Briefly: Induction of degradation of MAFF in mouse RAW264.7 cells at 40 uM measured after 24 hrs. Format: cell-based.
Assay [7] has the same target. Briefly: Induction of degradation of MAFF in mouse RAW264.7 cells assessed as reduction in MAFF expression at 20 uM measured after 24 hrs. The format is cell-based.
Assay [8] shares this target. Put plainly: Induction of degradation of MAFF in mouse RAW264.7 cells at 20 uM incubated for 24 hrs in presence of MG132 by Western blot analysis. Format: cell-based.
For assay [9], the system named is RAW264.7. Put plainly: Antiinflammatory activity in LPS induced mouse RAW264.7 cells assessed as inhibition of ROS production by DCFH-DA staining based fluorescence assay. The format is functional, cell-based. The settings on record: dose 5-20 µM.
Assay [10] relates to RAW264.7. Put plainly: Antiinflammatory activity in LPS induced mouse RAW264.7 cells assessed as upregulation of Nrf2 expression at 5 to 20 uM. Format: functional, cell-based. The settings on record: dose 5-20 µM.
Assay [11] relates to RAW264.7. Briefly: Antiinflammatory activity in LPS induced mouse RAW264.7 cells assessed as upregulation of heme oxygenase I expression at 5 to 20 uM. The format is functional, cell-based. The note with it: dose 5-20 µM.
For assay [12], the system named is RAW264.7. Put plainly: Antiinflammatory activity in LPS induced mouse RAW264.7 cells assessed as reduction in inducible nitric oxide synthase by immunofluorescence analysis. The format is functional, cell-based. The settings on record: dose 5-20 µM.
Assay [13] has as its system RAW264.7. Briefly: Antiinflammatory activity in LPS induced mouse RAW264.7 cells assessed as inhibition of […] phosphorylation at 5 to 20 uM by immunofluorescence analysis. Format: functional, cell-based. The settings on record: dose 5-20 µM.
The subject of assay [14] is RAW264.7. Put plainly: Antiinflammatory activity in LPS induced mouse RAW264.7 cells assessed as inhibition of NF-kappaB phosphorylation at 5 to 20 uM by immunofluorescence analysis. The format is functional, cell-based. The note with it: dose 5-20 µM.
In assay [15] the test system is RAW264.7. Put plainly: Antiinflammatory activity in LPS induced mouse RAW264.7 cells assessed as inhibition of nuclear translocation of NF-kappaB at 20 uM by immunofluorescence analysis. The format is functional, cell-based.
The test system of assay [16] is RAW264.7. Put plainly: Induction of autophagy in LPS induced mouse RAW264.7 cells assessed as increase in p62 expression at 5 to 40 uM by Western blot analysis. The note with it: dose 5-40 µM. Format: functional, cell-based.
Assay [17] relates to RAW264.7. Put plainly: Induction of autophagy in LPS induced mouse RAW264.7 cells assessed as increase in LC3B-II expression at 5 to 40 uM by Western blot analysis. The format is functional, cell-based. The note with it: dose 5-40 µM.

The source made the active and inactive calls. No cut-off for these calls is given here.

Chain of Transcription factor MafF (Mus musculus) (O54791 whole entry): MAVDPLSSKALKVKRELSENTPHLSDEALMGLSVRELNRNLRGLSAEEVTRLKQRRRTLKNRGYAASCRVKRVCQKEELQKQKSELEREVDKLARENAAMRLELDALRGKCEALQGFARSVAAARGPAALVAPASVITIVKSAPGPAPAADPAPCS

Consider `C=C1CC[C@H]2[C@@H](/C=C(\C)C(=O)[C@@]3(O)C[C@H](C)[C@H](O)[C@@H]3[C@H]1OCc1cn(CCOCCOCCOCCNC(=O)CN3CCN(C(=O)N4C(c5ccc(OC)cc5OC(C)C)=N[C@H](c5ccc(Cl)cc5)[C@@H]4c4ccc(Cl)cc4)CC3=O)nn1)C2(C)C`, for which the IC50 in the assay on RAW264.7 [1] is > 20 µM. The outcome in the assay with RAW264.7 [2] was Active.
For `C=C1CC[C@H]2[C@@H](/C=C(\C)C(=O)[C@@]3(O)C[C@H](C)[C@H](O)[C@@H]3[C@H]1OCc1cn(CC(=O)N[C@H](C(=O)N3C[C@H](O)C[C@H]3C(=O)NCc3ccc(-c4scnc4C)cc3)C(C)(C)C)nn1)C2(C)C`, the IC50 with RAW264.7 [1] was > 20 µM; with RAW264.7 [3] it was > 50 µM.
Consider `C=C1CC[C@H]2[C@@H](/C=C(\C)C(=O)[C@@]3(O)C[C@H](C)[C@H](O)[C@@H]3[C@H]1OCc1cn(CCCC(=O)N[C@H](C(=O)N3C[C@H](O)C[C@H]3C(=O)N[C@H](C)c3ccc(-c4scnc4C)cc3)C(C)(C)C)nn1)C2(C)C`, for which the IC50 with RAW264.7 [1] is > 20 µM; in the assay with RAW264.7 [3], > 50 µM.
The like results for `C=C1CC[C@H]2[C@@H](/C=C(\C)C(=O)[C@@]3(O)C[C@H](C)[C@H](O)[C@@H]3[C@H]1OCc1cn(CC(=O)N[C@H](C(=O)N3C[C@H](O)C[C@H]3C(=O)N[C@H](C)c3ccc(-c4scnc4C)cc3)C(C)(C)C)nn1)C2(C)C` were, in that order, > 20 µM and > 50 µM.
Turning to `C=C1CC[C@H]2[C@@H](/C=C(\C)C(=O)[C@@]3(O)C[C@H](C)[C@H](O)[C@@H]3[C@H]1OCc1cn(CCCC(=O)N[C@H](C(=O)N3C[C@H](O)C[C@H]3C(=O)NCc3ccc(-c4scnc4C)cc3)C(C)(C)C)nn1)C2(C)C`, the IC50 was > 20 µM with RAW264.7 [1] and > 50 µM in the assay with RAW264.7 [3].
Turning to `C=C1CC[C@H]2[C@@H](/C=C(\C)C(=O)[C@@]3(O)C[C@H](C)[C@H](O)[C@@H]3[C@H]1OCc1cn(CCCCCC(=O)N[C@H](C(=O)N3C[C@H](O)C[C@H]3C(=O)N[C@H](C)c3ccc(-c4scnc4C)cc3)C(C)(C)C)nn1)C2(C)C`, the results for the IC50 in the assay with RAW264.7 [1] and with RAW264.7 [3] were > 20 µM and > 50 µM, respectively.
For `C=C1CC[C@H]2[C@@H](/C=C(\C)C(=O)[C@@]3(O)C[C@H](C)[C@H](O)[C@@H]3[C@H]1OCc1cn(CCCCCC(=O)N[C@H](Cc3ccccc3)[C@H](O)C(=O)N[C@@H](CC(C)C)C(=O)OC)nn1)C2(C)C` the same measures were > 20 µM and > 50 µM.
For `C=C1CC[C@H]2[C@@H](/C=C(\C)C(=O)[C@@]3(O)C[C@H](C)[C@H](O)[C@@H]3[C@H]1OCc1cn(CC(=O)N[C@H](Cc3ccccc3)[C@H](O)C(=O)N[C@@H](CC(C)C)C(=O)OC)nn1)C2(C)C` the same measures were > 20 µM and > 50 µM.
Take `C=C1CC[C@H]2[C@@H](/C=C(\C)C(=O)[C@@]3(O)C[C@H](C)[C@H](O)[C@@H]3[C@H]1OCc1cn(CCOCCOCCOCCOCCNC(=O)CN3CCN(C(=O)N4C(c5ccc(OC)cc5OC(C)C)=N[C@H](c5ccc(Cl)cc5)[C@@H]4c4ccc(Cl)cc4)CC3=O)nn1)C2(C)C`: the IC50 with RAW264.7 [1] was > 20 µM. The result in the assay with RAW264.7 [2] was Active.
For `C=C1CC[C@H]2[C@@H](/C=C(\C)C(=O)[C@@]3(O)C[C@H](C)[C@H](O)[C@@H]3[C@H]1OCc1cn(CCCCCC(=O)N[C@H](C(=O)N3C[C@H](O)C[C@H]3C(=O)NCc3ccc(-c4scnc4C)cc3)C(C)(C)C)nn1)C2(C)C` the same measures were > 20 µM and “Active”.
In the case of `C=C1CC[C@H]2[C@@H](/C=C(\C)C(=O)[C@@]3(O)C[C@H](C)[C@H](O)[C@@H]3[C@H]1OCc1cn(CCOCCOCCNC(=O)[C@H](CC(C)C)NC(=O)[C@@H](O)[C@@H](Cc3ccccc3)NC(=O)OC(C)(C)C)nn1)C2(C)C`, the IC50 was 5.3 µM with RAW264.7 [1] and > 50 µM in the assay on RAW264.7 [3]. Besides, the outcome (in assay [4]; in assay [5]; in assay [7]; in the assay on RAW264.7 [10]; with RAW264.7 [11]; with RAW264.7 [13]) was Active. The outcome in the assay on RAW264.7 [14], with RAW264.7 [15], in the assay on RAW264.7 [16] and in the assay with RAW264.7 [17] was Active. The result in assay [6] and in assay [8] was inactive. The Activity result in the assay on RAW264.7 [9] and in the assay on RAW264.7 [12] was “Dose-Dependent Effect” in each case.
For the compound `C=C1CC[C@H]2[C@@H](/C=C(\C)C(=O)[C@@]3(O)C[C@H](C)[C@H](O)[C@@H]3[C@H]1OCc1cn(CCOCCOCCOCCNC(=O)[C@H](CC(C)C)NC(=O)[C@@H](O)[C@@H](Cc3ccccc3)NC(=O)OC(C)(C)C)nn1)C2(C)C`, the IC50 was > 20 µM in the assay with RAW264.7 [1] and > 50 µM in the assay with RAW264.7 [3].
`C=C1CC[C@H]2[C@@H](/C=C(\C)C(=O)[C@@]3(O)C[C@H](C)[C@H](O)[C@@H]3[C@H]1OCc1cn(CCCC(=O)N[C@H](Cc3ccccc3)[C@H](O)C(=O)N[C@@H](CC(C)C)C(=O)OC)nn1)C2(C)C`: the IC50 is > 20 µM in the assay on RAW264.7 [1] and > 50 µM in the assay on RAW264.7 [3].
Regarding `C=C1CC[C@H]2[C@@H](/C=C(\C)C(=O)[C@@]3(O)C[C@H](C)[C@H](O)[C@@H]3[C@H]1OCc1cn(CCOCCOCCOCCOCCNC(=O)[C@H](CC(C)C)NC(=O)[C@@H](O)[C@@H](Cc3ccccc3)NC(=O)OC(C)(C)C)nn1)C2(C)C`, the IC50 with RAW264.7 [1] is > 20 µM; in the assay with RAW264.7 [3], > 50 µM.
On to `C=C1CC[C@H]2[C@@H](/C=C(\C)C(=O)[C@@]3(O)C[C@H](C)[C@H](O)[C@@H]3[C@H]1OCc1cn(CCOCCOCCNC(=O)CN3CCN(C(=O)N4C(c5ccc(OC)cc5OC(C)C)=N[C@H](c5ccc(Cl)cc5)[C@@H]4c4ccc(Cl)cc4)CC3=O)nn1)C2(C)C`, for which, in the assay on RAW264.7 [1], the IC50 was > 20 µM. In addition, in the assay with RAW264.7 [2], the outcome was Active.
